In publication PMC5085761 (International Journal of Molecular Sciences, 2016):

Columns and labels:
LLC-PK1 monolayers = assay: Apical-to-basal transport through LLC-PK1 monolayers; type: in vitro ADME, pig; details: 10 µM tracer, at 120 min
Description: The LLC-PK1 cell line was purchased from DS Pharma Biomedical (Osaka, Japan). Cells were maintained in Dulbecco’s modified Eagle’s medium (DMEM; Life Technologies Japan, Tokyo, Japan) supplemented with 10% (v/v) fetal bovine serum (American Type Culture Collection, Manassas, VA, USA) and antibiotics (100 U/mL penicillin and 100 μg/mL streptomycin (Life Technologies Japan)). Cells were cultured at 37 °C under an atmosphere containing 5% CO2 before the start of the experiments.
Cells were seeded at a density of 1.5 × 10^6 cells/0.25 mL on the membrane of cell culture inserts fitting 24-well plates (upper compartment, apical side; Becton Dickinson, Franklin Lakes, NJ, USA). Flat-bottom 24-well tissue culture plates (Becton Dickinson) containing 0.95 mL of culture medium per well were used as the basolateral side (bottom compartment).
LLC-PK1 monolayer formation was monitored by the measurement of TER using an EVOM-2 and Endohm24 (World Precision Instruments, Inc., Sarasota, FL, USA) according to the manufacturer’s protocol. […] [^3H]Mannitol transport was measured as described in Section 4.3 for the validation of tight junction formation because mannitol passes through the cell monolayers via the paracellular route.
Experimental procedures were performed as described previously with minor modifications. After cultivation as described above, the culture media in both compartments were replaced with Na^+ buffer (137 mM NaCl, 2.7 mM KCl, 8 mM Na2HPO4, 1.5 mM KH2PO4, 5.6 mM D-glucose, 0.9 mM CaCl2, and 0.5 mM MgCl2; pH 7.4 at 37 °C), and the cells were preincubated for 10 min at 37 °C under normal air conditions. After the buffer was removed from each compartment, the permeability experiments were started with the addition of 0.25 mL of Na^+ buffer containing radiolabeled tracers (final concentration: 81 nM for [^3H]mannitol and 10 μM for the ^14C-labeled amino acid tracers) in each upper compartment, and 0.95 mL of Na^+ buffer in each bottom compartment. The inserts were placed into new 24-well culture plates containing 0.95 mL/well of Na^+ buffer after 5, 15, 30, 60, and 90 min of incubation. Subsequently, the cells were incubated up to 120 min at 37 °C under normal air conditions.
The apical-to-basal permeability was measured by sampling an aliquot of the buffer from the upper and bottom compartment at the indicated times. To evaluate intracellular accumulation, the cells were lysed in 0.5 mL of 0.1N NaOH at room temperature following rapid washing of the cells with ice-cold Na^+ buffer. The radioactivity of each aliquot was measured with an LSC6000SC (Beckman Coulter, Inc., Brea, CA, USA) or Tri-Carb 2910TR liquid scintillation counter (PerkinElmer) using Ultima Gold (PerkinElmer).

human P-gp = biological target: T1, human P-gp (Homo sapiens, UniProt P08183); assay: Inhibition of tracer uptake in P-gp-expressing vesicles; type: in vitro ADME; details: tracer [3H]digoxin 1 µM
T1 construct: purchased GenoMembrane Co., Ltd. (Kanagawa, Japan); host or cells: Sf9
Description: For ABC transporters, experimental kits containing Sf9-derived vesicles with high expression levels of human P-gp, MRP4, BCRP, and each ABC transporter (including buffer, ATP/AMP solution, and glutathione) were purchased from GenoMembrane Co., Ltd. (Kanagawa, Japan).
Vesicular transport assays were carried out according to the manufacturer’s protocol. […] The reaction was started by suspending 50 μg of vesicles (10 μL) in 40 μL of the reaction buffer. After incubation for an appropriate period of time, the reaction was stopped by the addition of ice-cold stop buffer (40 mM MOPS-Tris and 70 mM KCl; pH 7.0), after which the solution was filtered through a 0.45 μm HA filter (Millipore Corp., Billerica, MA, USA) using suction, and was washed twice in 5 mL of ice-cold stop buffer. The radioactivity of the filter was measured with a Tri-Carb 2910TR liquid scintillation counter (PerkinElmer) using Ultima Gold (PerkinElmer). The amount of tracer uptake was normalized to the membrane protein amount described in the product information sheets.

T1 sequence (P08183 whole entry): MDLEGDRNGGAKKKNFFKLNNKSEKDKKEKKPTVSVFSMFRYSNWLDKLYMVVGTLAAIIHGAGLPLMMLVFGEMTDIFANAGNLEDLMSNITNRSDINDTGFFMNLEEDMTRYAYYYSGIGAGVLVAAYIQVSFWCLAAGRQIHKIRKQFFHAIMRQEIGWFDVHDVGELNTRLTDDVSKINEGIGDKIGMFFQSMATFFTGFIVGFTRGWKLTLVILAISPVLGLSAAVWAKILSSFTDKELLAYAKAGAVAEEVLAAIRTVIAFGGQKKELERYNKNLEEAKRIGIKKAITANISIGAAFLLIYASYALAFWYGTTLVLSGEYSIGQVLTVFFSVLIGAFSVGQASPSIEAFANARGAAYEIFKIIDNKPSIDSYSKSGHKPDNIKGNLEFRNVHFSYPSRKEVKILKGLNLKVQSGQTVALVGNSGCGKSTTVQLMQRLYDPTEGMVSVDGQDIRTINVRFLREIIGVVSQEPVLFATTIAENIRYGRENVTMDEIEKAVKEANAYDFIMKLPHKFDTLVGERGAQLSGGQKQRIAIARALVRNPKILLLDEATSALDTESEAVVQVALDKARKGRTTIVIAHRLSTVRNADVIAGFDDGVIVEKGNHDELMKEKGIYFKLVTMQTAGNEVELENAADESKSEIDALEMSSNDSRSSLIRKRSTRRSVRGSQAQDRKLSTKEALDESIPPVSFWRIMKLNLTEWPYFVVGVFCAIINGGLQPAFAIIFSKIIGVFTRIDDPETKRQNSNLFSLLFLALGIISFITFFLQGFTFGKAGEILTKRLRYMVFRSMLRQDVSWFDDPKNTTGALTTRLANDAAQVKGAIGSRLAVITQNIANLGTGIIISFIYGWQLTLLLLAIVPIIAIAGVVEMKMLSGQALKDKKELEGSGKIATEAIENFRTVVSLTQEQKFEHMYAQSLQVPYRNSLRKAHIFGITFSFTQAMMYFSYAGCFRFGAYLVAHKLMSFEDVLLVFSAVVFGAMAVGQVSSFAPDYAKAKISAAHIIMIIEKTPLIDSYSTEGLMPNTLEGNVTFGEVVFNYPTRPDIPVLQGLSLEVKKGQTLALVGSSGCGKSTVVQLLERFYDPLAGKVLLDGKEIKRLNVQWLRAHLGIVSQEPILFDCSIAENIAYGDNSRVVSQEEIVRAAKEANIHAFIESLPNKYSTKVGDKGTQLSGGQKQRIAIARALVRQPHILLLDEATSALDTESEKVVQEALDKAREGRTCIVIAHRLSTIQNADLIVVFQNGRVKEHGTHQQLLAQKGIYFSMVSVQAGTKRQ

N[14C]1(C(=O)O)CC(F)C1 (stereo not drawn) [[^14C]fluciclovine, trans-1-amino-3-fluoro[1-^14C]cyclobutanecarboxylic acid]
mean penetration amount (apical-to-basal transport) (LLC-PK1 monolayers): 145 pmol
mean residual radioactivity in the cells (LLC-PK1 monolayers): 238 pmol

N[C@]1(C(=O)O)C[C@@H](F)C1 [fluciclovine]
IC50 (human P-gp): 2950 ± 2560 µM
